Laboratory results published in patent US5596002A, “Method of treating chloroquine-resistant malaria with aminoquinoline derivatives” (Hoffmann-La Roche Inc., priority 1993, dated 1997).
Values after ≈ are worked out from the molar mass of the structure shown. Where two headings read alike, the source gives them in different places.

Assays:
[1] = test system: Plasmodium berghei (strain ANKA); test: activity against Plasmodium berghei in vivo (infected mice); details: for ED50: read-out: ED50 (po)
Protocol: Test method for the determination of the activity against Plasmodium berghei in vivo
The preparations according to the present invention were tested on mice infected with malaria pathogens (Plasmodium berghei). Male albino mice (IBM:MORO(SPF), FUELLINSDORF) weighing about 25 g were used as the test animals. They were kept in climatized rooms at 21°-22° C. in groups of 5 animals per cage. They received ad libitum a diet feed with a low PABA content ("NAFAG FUTTER" No. 9009 PAB-45, PABA content 45 mg/kg) and drinking water. On the first day of the test (D0) the test animals were infected with Plasmodium berghei (strain ANKA). For this there was used heparinized blood of a donor mouse with about 30% parasitemia, which was diluted with physiological saline such that it contains 10^8 parasitized erythrocytes per ml. 0.2 ml of this suspension was injected intravenously (i.v.) into the mice to be treated and into the control mice. In untreated control animals the parasitemia normally reaches 30-40% on the third day after the infection (D+3) and the test animals die between days +5 and +7.
The substances to be tested were dissolved or suspended in distilled water or in a mixture of 7% Tween 80, 3% alcohol (96%) and water. Usually, 0.25 ml of this solution or suspension was administered once subcutaneously and perorally to groups of 5 test animals. Treatment was effected 24 hours after the infection. 10 control animals were treated in the same manner with solvent or suspension medium per test.
All substances were tested in a first test in a single dosage of 10 mg/kg. Only those substances which in this test (10 mg/kg) had shown a parasitaemia reduction of 90% were used for the titration.
48 hours after the treatment (D+3), blood smears were prepared from all animals using blood from tail veins and were stained with Giemsa. The average erythrocyte infection rate (parasitemia in %) in the control groups as well as in the groups which had been treated with the test compounds was determined by counting under a microscope. The difference in the average values of the infection rates of control group (100%) and treated groups was calculated and expressed as a percentage reduction (GI %). The ED50 or ED90 was determined mathematically by means of the JMP programme (nonlinear fit). The ED50 (ED90) in mg/kg is that dose which after single administration reduces the average erythrocyte infection rate by 50% (90%) in comparison to the control group.
Table 2 below contains data with respect to the activity measured against Plasmodium berghei in mice: GI % is the percentage reduction in the parasitemia after a single dose of 10 mg/kg of the test substance administered perorally (po) or subcutaneously (sc); ED50 and ED90 are the effective doses of the test substance administered perorally or subcutaneously.

[2] = test system: Plasmodium falciparum, chloroquine-sensitive strain HB3; test: activity against P. falciparum in vitro, strain HB3; assay type: cell-based; details: read-out: IC50 (50% growth inhibition)
Outline: (§1)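 Asynchronous cultures, human A+ RBC, 0.7% parasitemia/2.5% Hct; RPMI 1640 + 25 mM HEPES, 25 mM NaHCO3, 10% human serum; 37° C, 3% O2, 4% CO2, 93% N2; 48 h-72 h. ^3H-hypoxanthine uptake; IC50 via logit regression.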

[3] = test system: Plasmodium falciparum, chloroquine-resistant strain RFCR3; test: activity against P. falciparum in vitro, strain RFCR3; assay type: cell-based; details: read-out: IC50 (50% growth inhibition)
Outline: as §1

[4] = test system: Plasmodium falciparum, chloroquine-resistant strain ItG2 F6; test: activity against P. falciparum in vitro, strain ItG2 F6; assay type: cell-based; details: read-out: IC50 (50% growth inhibition)
Outline: as §1

[5] = test system: Plasmodium falciparum, chloroquine-resistant strain W2; test: activity against P. falciparum in vitro, strain W2; assay type: cell-based; details: read-out: IC50 (50% growth inhibition)
Outline: as §1

[6] = test system: Plasmodium falciparum, chloroquine-resistant strain Indo; test: activity against P. falciparum in vitro, strain Indo; assay type: cell-based; details: read-out: IC50 (50% growth inhibition)
Outline: as §1

[7] = test system: Plasmodium falciparum, chloroquine-sensitive strain FCH5C2; test: activity against P. falciparum in vitro, strain FCH5C2; assay type: cell-based; details: read-out: IC50 (50% growth inhibition)
Outline: as §1

[8] = test system: Plasmodium falciparum, chloroquine-resistant strain K1; test: activity against P. falciparum in vitro, strain K1; assay type: cell-based; details: Plasmodium falciparum, read-out: IC50 (50% growth inhibition)
Outline: as §1

[9] = test system: Plasmodium falciparum, chloroquine-resistant strain W2 Mef; test: activity against P. falciparum in vitro, strain W2 Mef; assay type: cell-based; details: 48 h-72 h, read-out: IC50 (50% growth inhibition)
Outline: as §1

[10] = test system: Plasmodium falciparum, chloroquine-sensitive strain NF54; test: activity against P. falciparum in vitro, strain NF54; assay type: cell-based; details: Plasmodium falciparum, read-out: IC50 (50% growth inhibition)
Outline: as §1

[11] = test system: Plasmodium falciparum, chloroquine-resistant strain 7G8; test: activity against P. falciparum in vitro, strain 7G8; assay type: cell-based; details: read-out: IC50 (50% growth inhibition)
Outline: as §1

[12] = test system: Plasmodium falciparum, chloroquine-sensitive strain Ro7 3; test: activity against P. falciparum in vitro, strain Ro7 3; assay type: cell-based; details: read-out: IC50 (50% growth inhibition)
Outline: as §1

[13] = test system: Plasmodium falciparum, chloroquine-sensitive strain RFMEF3; test: activity against P. falciparum in vitro, strain RFMEF3; assay type: cell-based; details: read-out: IC50 (50% growth inhibition)
Outline: as §1

[14] = mice, single administration po, dose reducing average erythrocyte infection rate by 50%
[15] = mice, single dose 10 mg/kg po, 48 hours after treatment (D+3), read-out: GI % at 10 mg/kg (po): percentage reduction in the parasitemia
[16] = mice, single dose 10 mg/kg sc, 48 hours after treatment (D+3), read-out: GI % at 10 mg/kg (sc): percentage reduction in the parasitemia
[17] = chloroquine-sensitive strain HB3, 48 h-72 h
[18] = chloroquine-resistant strain RFCR3, 48 h-72 h
[19] = chloroquine-resistant strain ItG2 F6, 48 h-72 h
[20] = chloroquine-resistant strain W2, 48 h-72 h
[21] = chloroquine-resistant strain Indo, 48 h-72 h
[22] = chloroquine-sensitive strain FCH5C2, 48 h-72 h
[23] = chloroquine-resistant strain K1, 48 h-72 h
[24] = chloroquine-sensitive strain NF54, 48 h-72 h
[25] = chloroquine-resistant strain 7G8, 48 h-72 h
[26] = chloroquine-sensitive strain Ro7 3, 48 h-72 h
[27] = chloroquine-sensitive strain RFMEF3, 48 h-72 h

Row | SMILES | ED50 [1, 14] [mg/kg] | inhibition in vivo at 10 mg/kg [1, 15] [%] | inhibition in vivo at 10 mg/kg [1, 16] [%] | IC50 [2, 17] [ng/mL] | IC50 [3, 18] [µg/mL] | IC50 [4, 19] [ng/mL] | IC50 [5, 20] [µg/mL] | IC50 [6, 21] [µg/mL] | IC50 [7, 22] [ng/mL] | IC50 [8, 23] [µg/mL] | IC50 [9] [µg/mL] | IC50 [10, 24] [ng/mL] | IC50 [11, 25] [µg/mL] | IC50 [12, 26] [ng/mL] | IC50 [13, 27] [ng/mL] | further results
1 | Clc1ccc2c(N[C@@H]3CCC[C@H]3N3CCCC3)ccnc2c1 (relative stereo) [Example 11a, (1RS,2RS)-N1-(7-Chloro-quinolin-4-yl)-(2-pyrrolidin-1-yl-cyclopentyl)-amine] | 4.5 | 99 | 99.6 | 6 (≈ 0.019 µM) | 0.018 (≈ 0.057 µM) | 8 (≈ 0.0253 µM) | 0.017 (≈ 0.0538 µM) | 0.015 (≈ 0.0475 µM) | 7 (≈ 0.0222 µM) | 0.015 (≈ 0.0475 µM) | 0.015 (≈ 0.0475 µM) | 7 (≈ 0.0222 µM) | 0.014 (≈ 0.0443 µM) | 4 (≈ 0.0127 µM) | 7 (≈ 0.0222 µM) | –
2 | CCN(CC)CCCC(C)Nc1ccnc2cc(Cl)ccc12 (stereo not drawn) [Chloroquine diphosphate, reference compound] | – | – | – | – | – | – | – | – | – | – | 0.079 | – | – | – | – | ED50 ([1]; Erythrocyte, po): 2.4 mg/kg; inhibition in vivo at 10 mg/kg ([1]; po, 48 h, read-out: GI % at 10 mg/kg (po): percentage reduction in the parasitemia): 99.9%; inhibition in vivo at 10 mg/kg ([1]; sc, 48 h, read-out: GI % at 10 mg/kg (sc): percentage reduction in the parasitemia): 99.9%; IC50 ([2]; HB3, 48 h): 11 ng/mL; IC50 ([3]; 48 h): 0.13 µg/mL; IC50 ([4]; 48 h): 68 ng/mL; IC50 ([5]; W2, 48 h): 0.123 µg/mL; IC50 ([6]; 48 h): 0.052 µg/mL; IC50 ([7]; 48 h): 12 ng/mL; IC50 ([8]; K1, 48 h): 0.011 µg/mL; IC50 ([10]; NF54, 48 h): 8 ng/mL; IC50 ([11]; 7G8, 48 h): 0.081 µg/mL; IC50 ([12]; 48 h): 8 ng/mL; IC50 ([13]; 48 h): 14 ng/mL
3 | CN1CCCC1CNc1ccnc2cc(Cl)ccc12 (stereo not drawn) [Example 12a, (7-Chloro-quinolin-4-yl)-(1-methyl-pyrrolidin-2-yl-methyl)-amine] | 4.8 | 91 | 91 | 10 (≈ 0.0363 µM) | 0.011 (≈ 0.0399 µM) | 5 (≈ 0.0181 µM) | 0.009 (≈ 0.0326 µM) | 0.011 (≈ 0.0399 µM) | 8 (≈ 0.029 µM) | 0.009 (≈ 0.0326 µM) | 0.006 (≈ 0.0218 µM) | 7 (≈ 0.0254 µM) | 0.008 (≈ 0.029 µM) | 7 (≈ 0.0254 µM) | 8 (≈ 0.029 µM) | –
4 | Clc1ccc2c(NCCCN3CCCCC3)ccnc2c1 [Example 18, (7-Chloro-quinolin-4-yl)-(3-piperidin-1-yl-propyl)-amine] | 6.9 | 83 | 96 | 8 (≈ 0.0263 µM) | 0.008 (≈ 0.0263 µM) | 7 (≈ 0.023 µM) | 0.011 (≈ 0.0362 µM) | 0.007 (≈ 0.023 µM) | 4 (≈ 0.0132 µM) | 0.014 (≈ 0.0461 µM) | 0.012 (≈ 0.0395 µM) | 4 (≈ 0.0132 µM) | 0.012 (≈ 0.0395 µM) | 7 (≈ 0.023 µM) | 8 (≈ 0.0263 µM) | –
